Test results reported in the supplement of paper PMC10307832.

Tests used:
Experiment in all cases: relative viability (nuclei count vs DMSO), 5 days (fraction); higher = more cells survive
[1] = compound: C/C(=N\NC(=S)N1CCC1)/C2=CC=CC=N2 + Cc1cc(Nc2cc(N3CCN(C)CC3)nc(Sc3ccc(NC(=O)C4CC4)cc3)n2)n[nH]1 [Tozasertib] (partner 0.1 µM)
Method in brief: (§1)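 Relative viability divides the nuclei count in treated wells by that in vehicle wells. Lung cancer cell lines were seeded in 1536-well plates, dosed by pin tool the next day, and fixed and stained after 5 days in one step with final 0.05% Triton X-100, 1% formaldehyde and 1 ug/ml Hoechst. Dosing was a single drug or a fixed anchor-drug dose plus five library-drug doses (not always all listed) in √10 steps, and values are medians of duplicate plates imaged at 4×.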

[2] = compound: C/C(=N\NC(=S)N1CCC1)/C2=CC=CC=N2 + Cc1nc(Nc2ncc(C(=O)Nc3c(C)cccc3Cl)s2)cc(N2CCN(CCO)CC2)n1 [Dasatinib] (partner 0.075 µM)
Method in brief: as §1

[3] = compound: C/C(=N\NC(=S)N1CCC1)/C2=CC=CC=N2 + CCNC(=O)c1noc(-c2cc(C(C)C)c(O)cc2O)c1-c1ccc(CN2CCOCC2)cc1 [Luminespib] (partner 0.01 µM)
Method in brief: as §1

[4] = compound: C/C(=N\NC(=S)N1CCC1)/C2=CC=CC=N2 + N=C(N)NC(=N)NCCc1ccccc1 [Phenformin] (partner 250 µM)
Method in brief: as §1

[5] = compound: C/C(=N\NC(=S)N1CCC1)/C2=CC=CC=N2 + COc1cccc2cc(-c3nc([C@H]4CC[C@H](C(=O)O)CC4)n4ncnc(N)c34)[nH]c12 [OSI-027] (partner 0.5 µM)
Method in brief: as §1

[6] = compound: C/C(=N\NC(=S)N1CCC1)/C2=CC=CC=N2 + COc1cc2c(Oc3ccc(NC(=O)C4(C(=O)Nc5ccc(F)cc5)CC4)cc3F)ccnc2cc1OCCCN1CCOCC1 [Foretinib] (partner 0.25 µM)
Method in brief: as §1

[7] = compound: C/C(=N\NC(=S)N1CCC1)/C2=CC=CC=N2
Method in brief: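 Nuclei counted with MetaXpress define viability as the ratio of treated to vehicle wells, given as a median across plates. The lung cancer cell lines were in 1536-well plates, pinned with five √10-spaced library-drug doses and imaged at 4× after 5 days and Hoechst staining. Plates passed with control CV below 25% and at least one doubling.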

[8] = compound: C/C(=N\NC(=S)N1CCC1)/C2=CC=CC=N2 + O=C(CCCCCCC(=O)Nc1ccccc1)NO [Vorinostat] (partner 1 µM)
Method in brief: as §1

[9] = compound: C/C(=N\NC(=S)N1CCC1)/C2=CC=CC=N2 + Nc1nc2[nH]cc(CCc3ccc(C(=O)N[C@@H](CCC(=O)O)C(=O)O)cc3)c2c(=O)[nH]1 [Pemetrexed] (partner 0.2 µM)
Method in brief: as §1

[10] = compound: C/C(=N\NC(=S)N1CCC1)/C2=CC=CC=N2 + NC(=O)Nc1cc(-c2cccc(F)c2)sc1C(=O)N[C@H]1CCCNC1 [AZD7762] (partner 0.2 µM)
Method in brief: as §1

[11] = compound: C/C(=N\NC(=S)N1CCC1)/C2=CC=CC=N2 + CC(=O)Nc1cccc(-n2c(=O)n(C3CC3)c(=O)c3c(Nc4ccc(I)cc4F)n(C)c(=O)c(C)c32)c1 [Trametinib] (partner 0.02 µM)
Method in brief: as §1

[12] = compound: C/C(=N\NC(=S)N1CCC1)/C2=CC=CC=N2 + Nc1ncn([C@H]2C[C@H](O)[C@@H](CO)O2)c(=O)n1 [Decitabine] (partner 2 µM)
Method in brief: as §1

[13] = compound: C/C(=N\NC(=S)N1CCC1)/C2=CC=CC=N2 + O=C(c1cc(Cc2n[nH]c(=O)c3ccccc23)ccc1F)N1CCN(C(=O)C2CC2)CC1 [Olaparib] (partner 8 µM)
Method in brief: as §1

[14] = compound: C/C(=N\NC(=S)N1CCC1)/C2=CC=CC=N2 + CC(=O)c1c(C)c2cnc(Nc3ccc(N4CCNCC4)cn3)nc2n(C2CCCC2)c1=O [Palbociclib] (partner 0.5 µM)
Method in brief: as §1

NCI-H1623 was tested, and the relative viability ([1]; first compound 0.05 µM) was 0.32, the relative viability ([1]; first compound 0.1581 µM) was 0.329 and the relative viability ([1]; first compound 0.5 µM) was 0.323. The relative viability ([1]; first compound 1.581 µM) was 0.269, the relative viability ([1]; first compound 5 µM) was 0.266 and the relative viability ([2]; first compound 0.05 µM) was 0.32. It also gave a relative viability ([2]; first compound 0.1581 µM) of 0.364, a relative viability ([2]; first compound 0.5 µM) of 0.293 and a relative viability ([2]; first compound 1.581 µM) of 0.276. For the same cell line, the relative viability ([2]; first compound 5 µM) was 0.528, the relative viability ([3]; first compound 0.05 µM) was 0.241 and the relative viability ([3]; first compound 0.1581 µM) was 0.295. The relative viability ([3]; first compound 0.5 µM) was 0.303, the relative viability ([3]; first compound 1.581 µM) was 0.231 and the relative viability ([3]; first compound 5 µM) was 0.322. The relative viability ([4]; first compound 0.05 µM) was 0.366, the relative viability ([4]; first compound 0.1581 µM) was 0.337 and the relative viability ([4]; first compound 0.5 µM) was 0.424. The relative viability ([4]; first compound 1.581 µM) was 0.349, the relative viability ([4]; first compound 5 µM) was 0.636 and the relative viability ([5]; first compound 0.05 µM) was 0.336. It also gave a relative viability ([5]; first compound 0.1581 µM) of 0.367, a relative viability ([5]; first compound 0.5 µM) of 0.332 and a relative viability ([5]; first compound 1.581 µM) of 0.268. For the same cell line, the relative viability ([5]; first compound 5 µM) was 0.293, the relative viability ([6]; first compound 0.05 µM) was 0.39 and the relative viability ([6]; first compound 0.1581 µM) was 0.372. It also gave a relative viability ([6]; first compound 0.5 µM) of 0.414, a relative viability ([6]; first compound 1.581 µM) of 0.347 and a relative viability ([6]; first compound 5 µM) of 0.622. The relative viability ([7]; 0.05 µM) was 0.395, the relative viability ([7]; 0.1581 µM) was 0.415 and the relative viability ([7]; 0.5 µM) was 0.403. The relative viability ([7]; 1.581 µM) was 0.357 and the relative viability ([7]; 5 µM) was 0.32.
Cell Line NCI-H2342 has a relative viability ([8]; first compound 0.05 µM) of 0.28, a relative viability ([8]; first compound 0.1581 µM) of 0.288 and a relative viability ([8]; first compound 0.5 µM) of 0.267. The relative viability ([8]; first compound 1.581 µM) was 0.234, the relative viability ([8]; first compound 5 µM) was 0.265 and the relative viability ([1]; first compound 0.05 µM) was 0.229. For the same cell line, the relative viability ([1]; first compound 0.1581 µM) was 0.264, the relative viability ([1]; first compound 0.5 µM) was 0.263 and the relative viability ([1]; first compound 1.581 µM) was 0.219. The relative viability ([1]; first compound 5 µM) was 0.247, the relative viability ([9]; first compound 0.05 µM) was 0.262 and the relative viability ([9]; first compound 0.1581 µM) was 0.288. For the same cell line, the relative viability ([9]; first compound 0.5 µM) was 0.277, the relative viability ([9]; first compound 1.581 µM) was 0.259 and the relative viability ([9]; first compound 5 µM) was 0.251. The relative viability ([10]; first compound 0.05 µM) was 0.302, the relative viability ([10]; first compound 0.1581 µM) was 0.32 and the relative viability ([10]; first compound 0.5 µM) was 0.278. The relative viability ([10]; first compound 1.581 µM) was 0.256, the relative viability ([10]; first compound 5 µM) was 0.285 and the relative viability ([11]; first compound 0.05 µM) was 0.249. It also gave a relative viability ([11]; first compound 0.1581 µM) of 0.303, a relative viability ([11]; first compound 0.5 µM) of 0.227 and a relative viability ([11]; first compound 1.581 µM) of 0.253. It also gave a relative viability ([11]; first compound 5 µM) of 0.272, a relative viability ([12]; first compound 0.05 µM) of 0.318 and a relative viability ([12]; first compound 0.1581 µM) of 0.306. It also gave a relative viability ([12]; first compound 0.5 µM) of 0.265, a relative viability ([12]; first compound 1.581 µM) of 0.276 and a relative viability ([12]; first compound 5 µM) of 0.25. For the same cell line, the relative viability ([2]; first compound 0.05 µM) was 0.297, the relative viability ([2]; first compound 0.1581 µM) was 0.283 and the relative viability ([2]; first compound 0.5 µM) was 0.258. It also gave a relative viability ([2]; first compound 1.581 µM) of 0.249, a relative viability ([2]; first compound 5 µM) of 0.284 and a relative viability ([3]; first compound 0.05 µM) of 0.261. The relative viability ([3]; first compound 0.1581 µM) was 0.279, the relative viability ([3]; first compound 0.5 µM) was 0.23 and the relative viability ([3]; first compound 1.581 µM) was 0.245. It also gave a relative viability ([3]; first compound 5 µM) of 0.238, a relative viability ([4]; first compound 0.05 µM) of 0.25 and a relative viability ([4]; first compound 0.1581 µM) of 0.232. It also gave a relative viability ([4]; first compound 0.5 µM) of 0.266, a relative viability ([4]; first compound 1.581 µM) of 0.231 and a relative viability ([4]; first compound 5 µM) of 0.25. For the same cell line, the relative viability ([13]; first compound 0.05 µM) was 0.276, the relative viability ([13]; first compound 0.1581 µM) was 0.281 and the relative viability ([13]; first compound 0.5 µM) was 0.192. It also gave a relative viability ([13]; first compound 1.581 µM) of 0.206, a relative viability ([13]; first compound 5 µM) of 0.259 and a relative viability ([5]; first compound 0.05 µM) of 0.288. It also gave a relative viability ([5]; first compound 0.1581 µM) of 0.263, a relative viability ([5]; first compound 0.5 µM) of 0.27 and a relative viability ([5]; first compound 1.581 µM) of 0.264. For the same cell line, the relative viability ([5]; first compound 5 µM) was 0.262, the relative viability ([14]; first compound 0.05 µM) was 0.276 and the relative viability ([14]; first compound 0.1581 µM) was 0.283. It also gave a relative viability ([14]; first compound 0.5 µM) of 0.274, a relative viability ([14]; first compound 1.581 µM) of 0.253 and a relative viability ([14]; first compound 5 µM) of 0.255. For the same cell line, the relative viability ([6]; first compound 0.05 µM) was 0.255, the relative viability ([6]; first compound 0.1581 µM) was 0.244 and the relative viability ([6]; first compound 0.5 µM) was 0.263. It also gave a relative viability ([6]; first compound 1.581 µM) of 0.24, a relative viability ([6]; first compound 5 µM) of 0.233 and a relative viability ([7]; 0.05 µM) of 0.274. It also gave a relative viability ([7]; 0.1581 µM) of 0.277, a relative viability ([7]; 0.5 µM) of 0.266 and a relative viability ([7]; 1.581 µM) of 0.239. For the same cell line, the relative viability ([7]; 5 µM) was 0.259.
